Data taken from patent US20260207513A1, “PHARMACEUTICAL COMPOSITION OF SIPONIMOD” (Synthon B.V., priority 2022, published 2026).
Like-named read-outs stand apart in the source and are kept apart here.

Assays:
[1] = Water content w(H2O), Karl Fischer method; assay type: physicochemical
Description: […] The water content can be determined according to the Karl Fischer method as described in Ph. Eur. section 2.5.32. The determination is done by coulometry, preferably Mettler Toledo DL39 Karl Fisher Coulometer, or an equivalent apparatus, including a titration cell without diaphragm. Alternatively, the volumetric Karl Fisher method can be used to determine the water content. […] The water content can be achieved by choosing appropriate ingredients, drying, wetting or combination thereof.

[2] = Compatibility study, closed container: sum of impurities by HPLC
Description: Afterwards, the two components were blended in Turbula® at 72 rpm for 10 minutes. The resulting blend was compacted in the EKO eccentric compression machine in order to obtain a slug. The slug was milled manually, resulting into a milled blend. The milled blend (440 mg) was accurately weighed and placed in glass, opaque vial. […] The milled blend was then analyzed for a sum of area percent levels of impurities (A^imp) by HPLC. The HPLC was performed on Acquity UPLC BEH C8, 150×2.1 mm, dp=1.7 μm column. The detection with UV light at wavelength of 259 nm was used. The column was eluted, using a gradient method, with aqueous ammonium acetate (10 mM, pH 5.5) and acetonitrile at column temperature of 50° C. for 30 min.

[3] = Excipients - substantially dry w(H2O) < 0.5%
[4] = siponimod adipic acid co-crystal:excipient 1:10 (w/w), excipients substantially dry w(H2O) < 0.5%, closed container, 1 month, 40° C., RH 75%
[5] = Excipients - hydrated w(H2O) ≥ 5%
[6] = Excipients - dry 0.5% ≤ w(H2O) < 5%

| Compound | w (H2O) [1, 3] | A^imp (1 m), sum of area percent levels of impurities [2, 4] | also measured |
| --- | --- | --- | --- |
| CCCCCCCCCCCCCCCCCCCCCC(=O)OCC(CO)OC(=O)CCCCCCCCCCCCCCCCCCCCC (stereo not shown) [Glycerol dibehenate] | 0.1% | 0.08% | – |
| CCCCCCCCCCCCCCCCCC(=O)OCC(O)CO (stereo not shown) [Glycerol monostearate] | 0.2% | 0.12% | – |
| OC[C@H]1O[C@@H](O[C@H]2[C@H](O)[C@@H](O)C(O)O[C@@H]2CO)[C@H](O)[C@@H](O)[C@H]1O (stereo partly shown) [Lactose] | – | – | w (H2O) [1, 5]: 5.0% |
| OC[C@@H](O)[C@@H](O)[C@H](O)[C@H](O)CO [Mannitol] | – | – | w (H2O) [1, 6]: 0.6% |
| CCc1cc(/C(C)=N/OCc2ccc(C3CCCCC3)c(C(F)(F)F)c2)ccc1CN1CC(C(=O)O)C1 [Siponimod adipic acid co-crystal] | – | – | w (H2O) ([1]; Active ingredients): 0.2%; A^imp (1 m), sum of area percent levels of impurities ([2]; Active ingredients, closed container, t = 1 month, 40° C., RH 75%): 0.09% |
| Isomalt | – | – | w (H2O) [1, 6]: 2.9%; w (H2O) [1, 5]: 5.0% |
| Magnesium stearate | 0.2% | – | A^imp (1 m), sum of area percent levels of impurities [2]: 0.16% |

More lines, main results first:

| w (H2O) [1, 3] | A^imp (1 m), sum of area percent levels of impurities [2, 4] | Compound | also measured |
| --- | --- | --- | --- |
| 0.4% | 0.08% | CCCCCCCCCCCCCCCCCCOC(=O)/C=C/C(=O)[O-].[Na+] [Sodium stearyl fumarate] | – |
| 0.3% | 0.05% | CCCCCCCCCCCCCCCCCCO [Stearyl alcohol] | – |
